Measured values published in US8809280B2, “Therapeutic peptides” (Lytix Biopharma AS, priority 2009, dated 2014).
Values after ≈ are worked out from the molar mass of the structure shown. Like-named read-outs stand apart in the source and are kept apart here. Starred links: 1 amine or outer side, 2 acyl side, 3 side chain; linkers in the order of their positions; H or OH if unused. Non-standard residues stand in square brackets, D forms with d. Residues, ends and D or L forms follow the SMILES beside them. X4 = O=C(C(CN[*:1])(Cc1ccc(F)cc1)Cc1ccc(F)cc1)[*:2]

Key:
Assay type in all cases: cell-based
[1] = test system: A20; experiment: cells; settings: for Anti-Cancer Selectivity MRC-5/A20: ratio of MRC-5 to A20 values
Experimental: Cancer Cell Lines A20 or MethA Anticancer assays: 500 μg/ml

[2] = test system: MRC-5; experiment: Toxicity assay MRC-5; settings: highest concentration tested 500 μg/ml; for Toxicity MRC-5: Example 2; for IC50: Homo sapiens, MRC5, Example 2
Experimental: Cells for Toxicity Studies Used MRC-5 and human RBC MRC-5 assay: 500 μg/ml

[3] = test system: Staphylococcus aureus (ATTC 25923); experiment: microbe, parasite or virus in culture
Experimental: (§1) The antimicrobial testing was conducted by TosLab A/S (Tromsø, Norway). Each compound was diluted to 1 mg/ml in water and tested in duplicates at 200, 100, 50, 35, 15, 10, 5, 2.5, 1, 0.5 μg/ml except 4n which was tested at 50, 35, 15, 10, 5, 2.5, 1, 0.5 μg/ml due to solubility problems. All tested compounds were di TFA salts.
(§2) The bacterial strains were grown in 2% Bacto Peptone water until exponential growth was achieved. […] A bacterial concentration of 2×10^6 cfu/ml was used. Both negative control (no peptide) and positive control (Gentamicin) was used for all bacterial strains. Growth or no growth was judged by the turbidity of the wells.
Staphylococcus aureus (ATTC 25923)
(§3) Antimicrobial assays: 200 μg/ml
(§4) Suitable methodologies are described in Example 1.
(§5) Each compound was tested in duplicates at 200, 100, 50, 35, 15, 10, 5, 2.5, 1, 0.5 μg/ml. All tested compounds were di-trifluoroacetic acid salts.

[4] = test system: human red blood cells; experiment: cells; settings: highest concentration tested 1000 μg/ml; for EC50: Erythrocyte; for EC50 RBC: Example 1, 50% hemolysis of human red blood cells
Experimental: The hemolytic testing against human erythrocytes was conducted by Lytix Biopharma A/S (Tromso, Norway). Each compound was tested from a concentration of 1 mg/ml and lower, except 4k and 4n which was only tested up to 0.5 mg/ml due to solubility problems. 8 mL of blood was collected from adult healthy male donors. The blood was divided equally and distributed in a commercial available EDTA containing test tube (BD vacutainer, 7.2 mg K2 EDTA) and in a 10 mL reaction vial containing 40 μL of a heparin solution (1000 U/mL in 0.9% sodium chloride). After 30 minutes the hematocrit of the EDTA treated blood was determined. The heparinized blood was centrifuged for 10 minutes at 1500 rpm and the supernatant removed. Subsequently the RBCs were washed with prewarmed PBS three times, and diluted to 10% hematocrit. The compounds dissolved in PBS (concentration 1 μg/mL to 1000 µg/mL) and the erythrocytes were incubated under agitation at 37° C. for one hour. A positive control with an end concentration of 0.1% TRITON X-100 (nonionic surfactant) and a negative control containing pure PBS buffer were included. The samples were centrifuged (4000 rpm) for 5 minutes and the absorption of the supernatant was measured at 405 nm. The values given in Table 1A correspond to 50% hemolysis.
The plasma fraction of heparinized human blood was first removed by centrifugation and three additional washing steps with 37° C. pre-warmed phosphate buffered saline (PBS). Subsequently, the human RBC were diluted to 10% hematocrit and the β^2,2-amino acid derivatives were dissolved in PBS providing concentrations ranging from 1-1000 μg/mL. The diluted RBC were added to the compound solutions to a final erythrocyte concentration of 1% v/v. PBS and TRITON X-100 (non-ionic surfactant), in a final concentration of 0.1% v/v, were included as negative and positive control. After 1 hour agitated incubation at 37° C. the samples were centrifuged at 4000 rpm for 5 min. Release of hemoglobin was determined by measuring the absorbance of the supernatant at 405 nm. Hemolytic activity was calculated as the ratio of treated sample with β^2,2-amino acid derivative and tenside treated sample according to the formula: […]

[5] = test system: methicillin resistant Staphylococcus epidermidis (ATCC 27626); experiment: microbe, parasite or virus in culture
Experimental: as §1, §2
Methicillin resistant Staphylococcus epidermidis (ATCC 27626)
as §3, §4, §5

[6] = test system: Escherichia coli (ATTC 25922); experiment: microbe, parasite or virus in culture; settings: for MIC: Escherichia coli; for MBC E. coli / MIC E. coli: ATTC 25922; for MIC E. coli: Example 1, di TFA salts
Experimental: as §1, §2
Escherichia coli (ATTC 25922)
as §3, §4, §5

[7] = test system: methicillin resistant Staphylococcus aureus (ATCC 33591); experiment: microbe, parasite or virus in culture; settings: for MIC: Staphylococcus aureus
Experimental: as §1, §2
Methicillin resistant Staphylococcus aureus (ATCC 33591)
as §3, §4, §5

[8] = Staphylococcus aureus, Example 2, values separated by / are repeat tests, read-out: Antimicrobial potency (MIC) S. aureus
[9] = Homo sapiens, Example 2, * low solubility in the test media, read-out: Toxicity RBC (EC50)
[10] = Staphylococcus epidermidis, ATCC 27626 / MRSE, Example 2, values separated by / are repeat tests, read-out: Antimicrobial potency (MIC) MRSE
[11] = Example 2, values separated by / are repeat tests, read-out: Antimicrobial potency (MIC) E. coli
[12] = ATCC 33591 / MRSA, Example 2, values separated by / are repeat tests, read-out: Antimicrobial potency (MIC) MRSA
[13] = Example 2, values separated by / are repeat tests
[14] = ATTC 25923, read-out: MIC S. aureus
[15] = highest concentration tested 200 μg/ml

MIC [3, 8] [µg/mL]	MIC [5, 10] [µg/mL]	MIC [6, 11] [µg/mL]	MIC [7, 12] [µg/mL]	SMILES	Toxicity MRC-5 [2] [µg/mL]	EC50 [4, 9] [µg/mL]	IC50 [2] [µg/mL]	further results
–	–	–	–	NCCCC[C@@H](N)C(=O)N[C@H](CCCCN)C(=O)N[C@H](Cc1c[nH]c2ccccc12)C(=O)NCC(Cc1ccc(F)cc1)(Cc1ccc(F)cc1)C(=O)N[C@@H](Cc1c[nH]c2ccccc12)C(=O)N[C@@H](CCCCN)C(=O)N[C@@H](CCCCN)C(N)=O [Compound 19, (R)-N-((2R,9S,12S,15S)-9-((1H-indol-3-yl)methyl)-19-amino-12-(4-aminobutyl)-15-carbamoyl-6,6-bis(4-fluorobenzyl)-1-(1H-indol-3-yl)-3,7,10,13-tetraoxo-4,8,11,14-tetraazanonadecan-2-yl)-6-amino-2-((R)-2,6-diaminohexanamido)hexanamide] (H-[dK][dK][dW][X4]WKK-NH2)	>500	–	–	Anticancer potency (IC50) A20 [1]: 197 µg/mL; Anti-Cancer Selectivity MRC-5/A20 [1]: (>2.5)
200	100	> 200	200	COc1cc(CC(CN)(Cc2cc(OC)cc(OC)c2)C(=O)NCCN)cc(OC)c1 [Compound 13, 3-amino-N-(2-aminoethyl)-2,2-bis(3,5-dimethoxy-benzyl)propanamide]	68	> 1000	62.5 (≈ 145 µM)	–
3.75	2.5	–	2.5	CC(C)(C)c1cc(CC(CN)(Cc2cc(C(C)(C)C)cc(C(C)(C)C)c2)C(=O)NCCN)cc(C(C)(C)C)c1 [Compound 14, 3-amino-N-(2-aminoethyl)-2,2-bis(3,5-di-tert-butylbenzyl)propanamide]	8.5	> 62.5	7.5 (≈ 14 µM)	Antimicrobial potency (MIC) S. aureus [3, 13]: 5 µg/mL; Antimicrobial potency (MIC) MRSE [5, 13]: 5 µg/mL
–	–	–	–	NCCCC[C@@H](N)C(=O)N[C@H](CCCCN)C(=O)N[C@H](Cc1c[nH]c2ccccc12)C(=O)NCC(Cc1ccc(C(F)(F)F)cc1)(Cc1ccc(C(F)(F)F)cc1)C(=O)N[C@@H](Cc1c[nH]c2ccccc12)C(=O)N[C@@H](CCCCN)C(=O)N[C@@H](CCCCN)C(N)=O [Compound 20, (R)-N-((2R,9S,12S,15S)-9-((1H-indol-3-yl)methyl)-19-amino-12-(4-aminobutyl)-15-carbamoyl-1-(1H-indol-3-yl)-3,7,10,13-tetraoxo-6,6-bis(4-(trifluoromethyl)benzyl)-4,8,11,14-tetraazanonadecan-2-yl)-6-amino-2-((R)-2,6-diaminohexanamido)hexanamide]	260	–	–	Anticancer potency (IC50) A20 [1]: 37 µg/mL; Anti-Cancer Selectivity MRC-5/A20 [1]: 7.0
200	100	> 200	100	Cc1ccc(CC(CN)(Cc2ccc(C)cc2)C(=O)NCCN)cc1 [Compound 8, 3-amino-N-(2-aminoethyl)-2,2-bis(4-methylbenzyl)propanamide]	44	> 1000	26 (≈ 76.6 µM)	–
–	–	–	–	N=C(N)NCCC[C@H](NC(=O)C(CN)(CCc1ccccc1)CCc1ccccc1)C(N)=O [Compound 4e]	–	–	–	MBC S. aureus ([3]; ATTC 25923): 147 µM (≈ 66.5 µg/mL); MIC [3, 14]: 147 µM; EC50 RBC [4]: — (The notation “—”denotes no detectable activity (MIC or EC50) within the concentration range tested.); MBC MRSE ([5]; ATCC 27626): 74 µM (≈ 33.5 µg/mL); MIC ([5]; ATCC 27626, read-out: MIC MRSE): 74 µM; MBC E. coli [6]: >294 µM; MIC E. coli [6, 15]: — (The notation “—”denotes no detectable activity (MIC or EC50) within the concentration range tested.); MBC MRSA ([7]; ATCC 33591): 147 µM (≈ 66.5 µg/mL); MIC MRSA ([7]; ATCC 33591): 147 µM (≈ 66.5 µg/mL)
–	–	–	–	Cc1cc(C)cc(CC(CN)(Cc2cc(C)cc(C)c2)C(=O)N[C@@H](CCCNC(=N)N)C(N)=O)c1 [Compound 4l]	–	–	–	MBC S. aureus ([3]; ATTC 25923): 49 µM (≈ 23.6 µg/mL); MIC [3, 14]: 60 µM; EC50 RBC [4]: — (The notation “—”denotes no detectable activity (MIC or EC50) within the concentration range tested.); MBC MRSE ([5]; ATCC 27626): 21 µM (≈ 10.1 µg/mL); MIC ([5]; ATCC 27626, read-out: MIC MRSE): 35 µM; MBC E. coli [6]: >282 µM; MIC E. coli [6, 15]: — (The notation “—”denotes no detectable activity (MIC or EC50) within the concentration range tested.); MBC MRSA ([7]; ATCC 33591): 49 µM (≈ 23.6 µg/mL); MIC MRSA ([7]; ATCC 33591): 49 µM (≈ 23.6 µg/mL)
100	50	> 200	100	NCCNC(=O)C(CN)(CCc1ccccc1)CCc1ccccc1 [Compound 5, N-(2-aminoethyl)-2-(aminomethyl)-2-phenethyl-4-phenylbutanamide]	–	> 1000	21.5 (≈ 63.3 µM)	–
–	–	–	–	CN1CCN(C(=O)C(CN)(Cc2ccc(C(F)(F)F)cc2)Cc2ccc(C(F)(F)F)cc2)CC1 [Entry 5b]	–	–	–	Therapeutic index S. aureus ([3]; EC50 RBC divided by MIC): 11; MIC ([3]; Staphylococcus aureus, ATCC25923, Example 4, ATCC 25923, di-trifluoroacetate salts, highest concentration tested 200 μg/ml, read-out: MIC S. aureus): 49 µM; EC50 ([4]; Example 4, hemolytic activity, human red blood cells, read-out: EC50 RBC): 525 µM; Therapeutic index MRSE ([5]; EC50 RBC divided by MIC): 7.5; MIC ([5]; Staphylococcus epidermidis, ATCC 27626 / MRSE, Example 4, ATCC 27626, di-trifluoroacetate salts, highest concentration tested 200 μg/ml, read-out: MIC MRSE): 70 µM; Therapeutic index E. coli ([6]; EC50 RBC divided by MIC): 7.5; MIC ([6]; ATCC25922, Example 4, ATCC 25922, di-trifluoroacetate salts, highest concentration tested 200 μg/ml, read-out: MIC E. coli): 70 µM; Therapeutic index MRSA ([7]; EC50 RBC divided by MIC): 38; MIC ([7]; ATCC33591, Example 4, ATCC 33591, di-trifluoroacetate salts, highest concentration tested 200 μg/ml, read-out: MIC MTRSA): 14 µM
10	10	10	10	CN(C)CCN1CCN(C(=O)C(CN)(Cc2ccc(C(C)(C)C)cc2)Cc2ccc(C(C)(C)C)cc2)CC1 [Compound 34, 3-amino-2,2-bis(4-tert-butylbenzyl)-1-(4-(2-(dimethylamino)ethyl)piperazin-1-yl)propan-1-one]	–	252	–	–
10	5	10	10	CN1CCN(C(=O)C(CN)(Cc2ccc(C(C)(C)C)cc2)Cc2ccc(C(C)(C)C)cc2)CC1 [Compound 29, 3-amino-2,2-bis(4-tert-butylbenzyl)-1-(4-methylpiperazin-1-yl)propan-1-one]	–	241	–	–
35	50	100	5	CN(C)CCN1CCN(C(=O)C(CN)(Cc2ccc(C(F)(F)F)cc2)Cc2ccc(C(F)(F)F)cc2)CC1 [Compound 38, 3-amino-1-(4-(2-(dimethylamino)ethyl)piperazin-1-yl)-2,2-bis(4-(trifluoromethyl)benzyl)propan-1-one]	–	862	–	–
